Measurements reported in patent publication US20260053778A1, “USE OF NOVEL PPAR ACTIVITY MODULATOR FOR PREVENTION, AMELIORATION OR TREATMENT OF DEGENERATIVE BRAIN DISEASES” (POSTECH RESEARCH AND BUSINESS DEVELOPMENT FOUNDATION, priority 2022, published 2026).

Tests used:
[1] = molecular target: T1, PPARγ (Homo sapiens, UniProt P37231); assay: GAL4-transactivation assay in HEK293A cells, PPARγ; assay type: cell-based; conditions: GAL4 reporter, 24 h, compared with rosiglitazone
T1 construct: expressed in transfected cells; host or cells: HEK293A
T1 sequence (P37231 1-505): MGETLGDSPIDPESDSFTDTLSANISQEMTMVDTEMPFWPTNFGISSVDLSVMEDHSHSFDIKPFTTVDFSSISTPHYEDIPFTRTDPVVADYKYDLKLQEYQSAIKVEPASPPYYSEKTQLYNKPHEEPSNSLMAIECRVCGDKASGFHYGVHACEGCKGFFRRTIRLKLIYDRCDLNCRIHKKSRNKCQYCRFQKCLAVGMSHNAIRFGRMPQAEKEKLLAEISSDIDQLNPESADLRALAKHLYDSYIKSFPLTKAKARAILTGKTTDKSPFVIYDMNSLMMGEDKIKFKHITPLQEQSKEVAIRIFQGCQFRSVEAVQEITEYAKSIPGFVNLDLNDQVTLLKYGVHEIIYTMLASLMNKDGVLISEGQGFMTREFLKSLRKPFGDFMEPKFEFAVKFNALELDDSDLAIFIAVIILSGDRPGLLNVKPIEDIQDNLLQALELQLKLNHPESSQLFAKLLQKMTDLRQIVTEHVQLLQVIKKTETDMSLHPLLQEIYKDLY
Experimental: A GAL4-transactivation assay experiment was performed to determine whether the drug was bound to the PPAR ligand binding site. HEK293A cells were transfected with GAL4-reporter plasmid and pGL4.74 (Promega, Madison, WI, USA) as an internal standard via electroporation using the Neon Transfection System (Invitrogen, Carlsbad, CA, USA). All vectors were kindly provided by Professor Kanno Yuichiro, Toho University, Japan. After overnight culture, cells were treated with DTMB and each positive control compound for 24 h. Cells were then harvested, resuspended in luciferase lysis buffer (Promega), and incubated on ice for 10 min. Cell debris was removed by centrifugation at 20,000×g, 4° C. for 10 min, and the supernatant was used for the luciferase assay. Luciferase activity was measured using the Dual Luciferase Reporter Assay System (Promega) according to the manufacturer's instructions. In the measurement experiment, firefly luciferase activity was normalized to Renilla luciferase activity. To investigate the concentration-dependent effect of DTMB drug, EC50 values were measured by treating various concentrations of DTMB.

[2] = test system: primary microglia isolated from mouse; assay: Cytokine ELISA in primary microglia; assay type: cell-based; conditions: primary microglia treated with LPS or Aβ aggregates, DTMB 24 h
Experimental: To confirm a more clear anti-inflammatory effect, the microglia cell line (BV2) and microglia isolated from mice were treated with lipopolysaccharide (LPS) and Aβ aggregates to induce an inflammatory response, and then DTMB was treated to measure the decrease in cytokine levels in microglia by DTMB treatment using ELISA.
Primary microglial culture was performed as described in the literature [Lian H, Roy E, Zheng H. Protocol for primary microglial culture preparation. Bio-protocol. 2016; 6(21)]. Postnatal day 3 mice were used for primary microglial cell preparation. Newborn mouse pups were anesthetized on ice and then sacrificed. The isolated cortex and hippocampus were collected after removing the meninges. The brain tissues were dissociated by incubation with trypsin (2.5%) in HBSS (Gibco, Gaithersburg, MD, USA) for 15 min. The cell homogenate was then cultured in M-CSF (20 ng/mL, R&D Systems) supplemented with DMEM-F12 medium containing 10% fetal bovine serum, 10% horse serum, 1% GlutaMAX (Gibco, MD, USA), and 1% penicillin/streptomycin (Welgene, Korea). After 10 days, microglia were purified by shaking at 260 rpm for 2 h.
Cytokine levels (TNF-α, IL-1β, and IL-6) were measured in the media of BV2 microglia and primary microglia treated with LPS (1 μg/mL) and human Aβ1-42 (5 μg/mL). […]

[3] = test system: NF-κB; assay: NF-κB gene expression by qPCR after MG132 and DTMB; assay type: cell-based; conditions: MG132 (20 μM) 6 hours, DTMB (25 μM) 24 hours
Experimental: In addition, to inhibit proteasomal degradation, cells were treated with MG132 (20 μM) for 6 hours and DTMB (25 μM) for 24 hours, and then the gene expression level of NF-κB was confirmed by qPCR analysis. As shown in the results of FIGS. 2L and 2M, this response was mediated by proteasomal degradation rather than transcriptional inhibition, since there was no change in the mRNA level of NF-κB.

[4] = test system: primary microglia; assay: Quantitative PCR of inflammation genes in primary microglia; assay type: cell-based, mouse; conditions: qPCR
Description: In addition, the gene expression levels of Il-6. Il-1 #, and iNOS, which are NF-κB target genes related to chronic inflammation, and Arg-1, an anti-inflammatory marker, were confirmed by quantitative PCR (qPCR) analysis in primary microglia.
Total RNA was isolated using TRI reagent (Molecular Research Center, Cincinnati, OH, USA). RNA was reverse transcribed using the ImProm-II Reverse Transcription System (Promega) according to the manufacturer's instructions. For detection and quantification, the StepOnePlus Real-Time PCR System (Applied Biosystems, Foster City, CA, USA) was used with FastStart Universal SYBR Green Master (Roche, Basel, Switzerland). Real-time qPCR data were analyzed using the comparative CT method.

[5] = test system: 5×FAD Alzheimer's dementia-induced mice; assay: Immunohistochemistry of gliosis (IBA-1, GFAP) in brain tissue; assay type: in vivo, mouse; conditions: cerebral cortex and hippocampus, IBA-1 and GFAP staining, 5×FAD mice, DTMB 10 mg/kg orally
Experimental: The degree of gliosis was confirmed through immunochemical analysis using antibodies against IBA-1, a specific protein of microglia, and GFAP, a specific protein of astrocytes. Specifically, immunohistochemistry was performed in the same manner as in Example 6-1 using anti-Iba1 antibody (Wako, Japan, 1:200) and anti-GFAP antibody (Abcam, Cambridge, UK, 1:200) as primary antibodies.

Structure (SMILES): COc1ccc(-c2cc(=O)oc3c(C)c(OC(=O)[C@H](Cc4c[nH]c5ccccc45)NC(=O)OC(C)(C)C)ccc23)cc1 [DTMB, [4-(4-Methoxyphenyl)-8-methyl-2-oxochromen-7-yl](2S)-3-(1H-indol-3-yl)-2-[(2-methylpropan-2-yl)oxycarbonylamino]propanoate]
- PPARγ activation versus positive control [1]: activated at a slightly higher concentration than GW501516 and rosiglitazone, respectively
- Level of IL-6 [2]: statistically significantly reduced
- Level of TNF-α [2]: statistically significantly reduced
- mRNA level of NF-κB [3]: no change
- Expression of Il-1β [4]: decreased
- Expression of Il-6 [4]: decreased
- Expression of anti-inflammatory marker Arg-1 [4]: induced
- Expression of iNOS [4]: decreased
- Hyperactivity of microglia and astrocytes (gliosis) [5]: significantly reduced
